Assay results: US12054494B2, “Compound with anticancer activity” (KYOWA KIRIN CO., LTD., priority 2018, dated 2024)

System: SU-DHL-4 cells
Experiment: Inhibitory effect on cell viability (Cell Counting Kit-8)
Assay type: cell-based
Conditions: Homo sapiens, 72 hours culture with test compound, concentration showing 90% inhibition rate of cell viability
Procedure: Inhibitiory Effect on Cell Viability
SU-DHL-4 cells (Code No. ACC 495, Deutsche Sammlung von Mikroorganismen and Zellkulturen GmbH) were cultured at 37° C. using a carbon dioxide incubator (95% air, 5% CO2) in RPMI1640 medium (Code No. 11875-093, Thermo Fisher Scientific) in which inactivated fetal bovine serum (FBS: Code No. 10099-148, Thermo Fisher Scientific) in an amount to give a final concentration of 10 vol % and penicillin/streptomycin solution (PS: Code No. 15140-122, Thermo Fisher Scientific) in an amount to give a final concentration of 1 vol % were added. The cells were passaged twice a week at a volume of 20-40 mL so as to maintain a cell concentration of 1×10^6 cells/mL or less.
The cultured SU-DHL-4 cells were seeded at 2000 cells/well in a transparent 384-well plate (Code No. 781182, Greiner bio-one). After seeding, the cells were precultured at 37° C. in a carbon dioxide gas incubator for 18 to 25 hours. Next, 1, 0.1 or 0.01 mmol/L DMSO solution of the test compound was prepared and a 9-step dilution series were prepared so that the concentration will be 200 times the final concentration in the RPMI1640 medium containing the above FBS and PS, and 1/200 volume of the dilution series were added to each well. At this time, the final concentration of DMSO was adjusted to be 0.1 vol %. After adding the test compound, the cells were cultured at 37° C. in a carbon dioxide gas incubator for 72 hours. Next, 0.020 mL of Cell Counting Kit-8 (Code No. CK04, DOJINDO) solution diluted 2-fold or 4-fold with phosphate buffered saline (PBS) was added to each well. Color reaction was carried out in a carbon dioxide gas incubator at 37° C. for 2 to 3 hours, and the absorbance at a wavelength of 450 nm was measured using SpectraMax 340PC (Molecular Devices). The inhibition rate of cell viability was calculated by the following formula, and the concentration of the test compound (IC90 value) showing a 90% inhibition rate of cell viability was calculated. Inhibition rate of cell viability (%)=100−(A−B)/(C−B)×100 • A: Absorbance of a well containing test compound • B: Absorbance of a well without addition of cells • C: Absorbance of a well without addition of test compound

## CCC(=O)N1c2ccccc2[C@H](Nc2ccc(CN3CCn4cc(-c5ccc(N[C@@H]6C[C@H](C)N(C(=O)CC)c7ccccc76)cc5)nc4C3)cc2)C[C@@H]1C [Compound 5b, 1-((2S,4R)-2-Methyl-4-((4-((2-(4-(((2S,4R)-2-methyl-1-propionyl-1,2,3,4-tetrahydroquinolin-4-yl)amino)phenyl)-5,6-dihydroimidazo[1,2-a]pyrazin-7(8H)-yl)methyl)phenyl)amino)-3,4-dihydroquinolin-1(2H)-yl)propan-1-one]
  IC90: 39.6 nM

## CCC(=O)N1c2ccccc2[C@H](Nc2ccc(C(=O)NCc3cn(-c4ccc(C5=NCc6nnc(C)n6-c6sc(C)c(C)c65)cc4)nn3)cc2)C[C@@H]1C [Compound 14q, 4-(((2S,4R)-2-Methyl-1-propionyl-1,2,3,4-tetrahydroquinolin-4-yl)amino)-N-((1-(4-(2,3,9-trimethyl-6H-thieno[3,2-f][1,2,4]triazolo[4,3-a][1,4]diazepin-4-yl)phenyl)-1H-1,2,3-triazol-4-yl)methyl)benzamide]
  IC90: 0.17 nM

## CCC(=O)N1c2ccccc2[C@H](NCCCC2CCN(C(=O)Nc3ccc(N[C@@H]4C[C@H](C)N(C(=O)CC)c5ccccc54)cc3)CC2)C[C@@H]1C (relative stereo) [Compound 12d, N-(4-(((2S,4R)-2-Methyl-1-propionyl-1,2,3,4-tetrahydroquinolin-4-yl)amino)phenyl)-4-(3-(((2S*,4R*)-2-methyl-1-propionyl-1,2,3,4-tetrahydroquinolin-4-yl)amino)propyl)piperidine-1-carboxamide]
  IC90: 34.9 nM

## CCC(=O)N1c2ccccc2[C@H](Nc2ccc(C(=O)N3CCC(C(=O)Nc4ccc(N[C@@H]5C[C@H](C)N(C(=O)CC)c6ccccc65)nc4)CC3)cc2)C[C@@H]1C (relative stereo) [Compound 10m, 1-(4-(((2S,4R)-2-Methyl-1-propionyl-1,2,3,4-tetrahydroquinolin-4-yl)amino)benzoyl)-N-(6-(((2S*,4R*)-2-methyl-1-propionyl-1,2,3,4-tetrahydroquinolin-4-yl)amino)pyridin-3-yl)piperidine-4-carboxamide]
  IC90: 30.9 nM

## CCC(=O)N1c2ccccc2[C@H](Nc2ccc(C(=O)N3CCn4c(-c5ccc(N[C@@H]6C[C@H](C)N(C(=O)CC)c7ccccc76)cc5)cnc4C3)cc2)C[C@@H]1C [Compound 3e, 1-[(2S,4R)-2-Methyl-4-({4-[3-(4-{[(2S,4R)-2-methyl-1-propionyl-1,2,3,4-tetrahydroquinolin-4-yl]amino}phenyl)-5,6,7,8-tetrahydroimidazo[1,2-a]pyrazine-7-carbonyl]phenyl}amino)-3,4-dihydroquinolin-1(2H)-yl]propan-1-one]
  IC90: 0.12 nM

## CCC(=O)N1c2ccccc2[C@H](Nc2ccc(CCCC(=O)Nc3ccc(N[C@@H]4C[C@H](C)N(C(=O)CC)c5ccccc54)cc3)cc2)C[C@@H]1C [Compound 5r, N,4-Bis(4-(((2S,4R)-2-methyl-1-propionyl-1,2,3,4-tetrahydroquinolin-4-yl)amino)phenyl)butanamide]
  IC90: 1.78 nM

## CCC(=O)N1c2ccccc2[C@H](Nc2ccc(NC(=O)CCNC(=O)c3ccc(N[C@@H]4C[C@H](C)N(C(=O)CC)c5ccccc54)cc3)cc2)C[C@@H]1C (relative stereo) [Compound 2f, 4-{[(2S,4R)-2-Methyl-1-propionyl-1,2,3,4-tetrahydroquinolin-4-yl]amino}-N-{3-[(4-{[(2S*,4R*)-2-methyl-1-propionyl-1,2,3,4-tetra hydroquinolin-4-yl]amino}phenyl)amino]-3-oxopropyl}benzamide]
  IC90: 0.23 nM

## CCC(=O)N1c2ccccc2[C@H](Nc2ccc(-c3nnc(CNC(=O)c4ccc(Cn5c(C(=O)OCCN(C)C)cc6c5CCCC6=O)cc4)o3)cc2)C[C@@H]1C [Compound 15b, 2-(Dimethylamino)ethyl 1-(4-(((5-(4-(((2S,4R)-2-methyl-1-propionyl-1,2,3,4-tetrahydroquinolin-4-yl)amino)phenyl)-1,3,4-oxadiazol-2-yl)methyl)carbamoyl)benzyl)-4-oxo-4,5,6,7-tetrahydro-1H-indole-2-carboxylate]
  IC90: 1.07 nM

## CCC(=O)N1c2ccccc2[C@H](Nc2ccc(NC(=O)CNC(=O)c3ccc(N[C@@H]4C[C@H](C)N(C(=O)CC)c5ccccc54)cc3)cc2)C[C@@H]1C (relative stereo) [Compound 2a, 4-{[(2S*,4R*)-2-Methyl-1-propionyl-1,2,3,4-tetrahydroquinolin-4-yl]amino}-N-{2-[(4-{[(2S*,4R*)-2-methyl-1-propionyl-1,2,3,4-tetrahydroquinolin-4-yl]amino}phenyl)amino]-2-oxoethyl}benzamide]
  IC90: 2.12 nM

## CCC(=O)N1c2ccccc2[C@H](Nc2ccc(-c3cnn(CCNC(=O)c4ccc(Cn5c(C(=O)OCCN(C)C)cc6c5CCCC6=O)cc4)c3)cc2)C[C@@H]1C [Compound 15d, 2-(Dimethylamino)ethyl 1-(4-((2-(4-(4-(((2S,4R)-2-methyl-1-propionyl-1,2,3,4-tetrahydroquinolin-4-yl)amino)phenyl)-1H-pyrazol-1-yl)ethyl)carbamoyl)benzyl)-4-oxo-4,5,6,7-tetrahydro-1H-indole-2-carboxylate]
  IC90: 0.16 nM

## CCC(=O)N1c2ccccc2[C@H](Nc2ccc(C(=O)NCc3nnc(-c4ccc(N[C@@H]5C[C@H](C)N(C(=O)CC)c6ccccc65)cc4)o3)cc2)C[C@@H]1C [Compound 3c, 4-{[(2S,4R)-2-Methyl-1-propionyl-1,2,3,4-tetrahydroquinolin-4-yl]amino}-N-{[5-(4-{[(2S,4R)-2-methyl-1-propionyl-1,2,3,4-tetrahydroquinolin-4-yl]amino}phenyl)-1,3,4-oxadiazol-2-yl]methyl}benzamide]
  IC90: 0.11 nM

## CCC(=O)N1c2ccccc2[C@H](Nc2ccc(CNCc3cn(-c4ccc(N[C@@H]5C[C@H](C)N(C(=O)CC)c6ccccc65)nc4)nn3)cc2)C[C@@H]1C (relative stereo) [Compound 10j, 1-((2S,4R)-2-Methyl-4-((4-((((1-(6-(((2S*,4R*)-2-methyl-1-propionyl-1,2,3,4-tetrahydroquinolin-4-yl)amino)pyridin-3-yl)-1H-1,2,3-triazol-4-yl)methyl)amino)methyl)phenyl)amino)-3,4-dihydroquinoline-1(2H)-yl)propan-1-one]
  IC90: 1.73 nM

## CCC(=O)N1c2ccccc2[C@H](Nc2ccc(NC(=O)CCCC(=O)Nc3ccc(N[C@@H]4C[C@H](C)N(C(=O)CC)c5cc(C6=CCNCC6)ccc54)cc3)cc2)C[C@@H]1C (relative stereo) [Compound 10u, N^1-(4-(((2S,4R)-2-Methyl-1-propionyl-1,2,3,4-tetrahydroquinolin-4-yl)amino)phenyl)-N^5-(4-(((2S*,4R*)-2-methyl-1-propionyl-7-(1,2,3,6-tetrahydropyridin-4-yl)-1,2,3,4-tetrahydroquinolin-4-yl)amino)phenyl)glutaramide]
  IC90: 15.9 nM

## CCC(=O)N1c2ccccc2[C@H](Nc2ccc(SCCNC(=O)c3ccc(N[C@@H]4C[C@H](C)N(C(=O)CC)c5ccccc54)cc3)cc2)C[C@@H]1C [Compound 4f, 4-{[(2S,4R)-2-Methyl-1-propionyl-1,2,3,4-tetrahydroquinolin-4-yl]amino}-N-{2-[(4-{[(2S,4R)-2-methyl-1-propionyl-1,2,3,4-tetrahydroquinolin-4-yl]amino}phenyl)thio]ethyl}benzamide]
  IC90: 1.19 nM

## CCC(=O)N1c2ccccc2[C@H](Nc2ccc(-c3cnn(CCNC(=O)N4CCC(N[C@@H]5C[C@H](C)N(C(=O)CC)c6ccccc65)CC4)c3)cc2)C[C@@H]1C (relative stereo) [Compound 10d, 4-(((2S*,4R*)-2-Methyl-1-propionyl-1,2,3,4-tetrahydroquinolin-4-yl)amino)-N-(2-(4-(4-(((2S,4R)-2-methyl-1-propionyl-1,2,3,4-tetrahydroquinolin-4-yl)amino)phenyl)-1H-pyrazol-1-yl)ethyl)piperidine-1-carboxamide]
  IC90: 3.42 nM

## CCC(=O)N1c2ccccc2[C@H](Nc2ccc(-c3cnn(CC(=O)Nc4ccc(C5=NCc6nnc(C)n6-c6sc(C)c(C)c65)cc4)c3)cc2)C[C@@H]1C [Compound 14a, 2-(4-(4-(((2S,4R)-2-Methyl-1-propionyl-1,2,3,4-tetrahydroquinolin-4-yl)amino)phenyl)-1H-pyrazol-1-yl)-N-(4-(2,3,9-trimethyl-6H-thieno[3,2-f][1,2,4]triazolo[4,3-a][1,4]diazepin-4-yl)phenyl)acetamide]
  IC90: 0.04 nM

## CCC(=O)N1c2ccccc2[C@H](Nc2ccc(SCCNC(=O)c3ccc(C4=NCc5nnc(C)n5-c5sc(C)c(C)c54)cc3)cc2)C[C@@H]1C [Compound 14s, N-(2-((4-(((2S,4R)-2-Methyl-1-propionyl-1,2,3,4-tetrahydroquinolin-4-yl)amino)phenyl)thio)ethyl)-4-(2,3,9-trimethyl-6H-thieno[3,2-f][1,2,4]triazolo[4,3-a][1,4]diazepin-4-yl)benzamide]
  IC90: 2.2 nM
